How the values were obtained:
Type in all cases: cell-based
bacteria [1] = experiment: drug sensitivity test, turbidity measurement of the well after 18 hours of culture; conditions: turbidity after 18 hours from start of culture
From the text: In a drug sensitivity test for bacteria, it is important to measure properties of bacteria and increase or decrease in the number of bacteria, and in a third embodiment, for example, an example applied to the drug sensitivity test will be described. Also in the third embodiment, the fine particle testing apparatus 100 described in the first embodiment can be used. However, the sample solution 108 contains bacteria, a medium component necessary for growth of the bacteria, and an antimicrobial agent to be tested. The fine particle testing apparatus 100 is temperature-adjusted to a temperature suitable for growth of the bacteria, for example, 37° C. […]
Here, the sensitivity of this bacterium to ampicillin/sulbactam is found to be “proliferation” at a concentration of 0.5/0.25 μg/mL and “suppression” at a concentration of 32/16 μg/mL by turbidity measurement of the well after 18 hours from the start of culture. […] This example has shown that proliferation/suppression is determined at two concentrations of the antimicrobial agent, but actually, the concentration of the drug is more finely changed to determine proliferation/suppression. The minimum antimicrobial agent concentration is referred to as minimum inhibitory concentration (MIC), and the MIC is preferably calculated based on the result of proliferation/suppression. […]

bacteria [2] = experiment: drug sensitivity test, bacterial area value from time-series microscopic images (image processing of first embodiment); conditions: FIG. 9
From the text: (§1) In a drug sensitivity test for bacteria, it is important to measure properties of bacteria and increase or decrease in the number of bacteria, and in a third embodiment, for example, an example applied to the drug sensitivity test will be described. Also in the third embodiment, the fine particle testing apparatus 100 described in the first embodiment can be used. However, the sample solution 108 contains bacteria, a medium component necessary for growth of the bacteria, and an antimicrobial agent to be tested. The fine particle testing apparatus 100 is temperature-adjusted to a temperature suitable for growth of the bacteria, for example, 37° C. Further, a plate having 96 holes or 384 holes can be used as the testing plate 102.
FIG. 9 is a diagram illustrating a relationship of the area of a bacterial region corresponding to the sum of area values of fine particles obtained by executing the processing of steps 200 to 204 (image processing of the first embodiment) on a plurality of time-series images obtained by the imaging part 105 of the fine particle testing apparatus 100. This measurement result is a result of imaging bacteria cultured for 8 hours in a culture solution containing ampicillin/sulbactam at concentrations of 0.5/0.25 μg/mL and 32/16 μg/mL.

Pseudomonas aeruginosa [3] = experiment: drug sensitivity test, bacterial area value from time-series microscopic images (image processing of second embodiment); conditions: cultured 12 hours, FIG. 10
From the text: as §1
In the fine particle testing apparatus 100, an image is acquired by focusing the lens 104 on the vicinity of the well bottom surface of the testing plate 102 for each imaging. However, in a case where the fine particles are bacteria, in particular, highly motile bacteria, even if adjustment is performed for each imaging so as to focus on one well each time, an image with a clear contour may not be acquired, resulting in an image as illustrated in FIGS. 8A to 8B. As an example of such a case, a measurement example using Pseudomonas aeruginosa considered to have high motility as a bacterium different from the result of FIG. 9 will be described (see FIG. 10). […]

Pseudomonas aeruginosa [4] = experiment: drug sensitivity test, turbidity measurement after 18 hours of culture; conditions: turbidity after 18 hours from start of culture

Question: Which “sensitivity of bacterium (proliferation/suppression)” value (bacteria [1]; ampicillin/sulbactam 0.5/0.25 μg/mL) does the source give for ampicillin/sulbactam here?
Answer: proliferation

Question: And the “sensitivity of bacterium (proliferation/suppression)” value (bacteria [1]; ampicillin/sulbactam 32/16 μg/mL)?
Answer: suppression

Question: What about the “bacterial area value over time” value (bacteria [2]; ampicillin/sulbactam 0.5/0.25 μg/mL, cultured 8 hours) of the same substance?
Answer: starts to increase exponentially after 2 hours from the start of culture

Question: What about the “bacterial area value over time” value (bacteria [2]; ampicillin/sulbactam 32/16 μg/mL, within 8 hours from start of culture) of the same substance?
Answer: substantially unchanged from the initial value

Question: How did the “bacterial area value over time” value (Pseudomonas aeruginosa [3]; gentamicin 0.12 μg/mL) turn out when gentamicin was run?
Answer: starts to increase exponentially after 4 hours from the start of culture

Question: And the “bacterial area value over time” value (Pseudomonas aeruginosa [3]; gentamicin 8 μg/mL)?
Answer: slightly increases

Question: And the “sensitivity of bacterium (proliferation/suppression)” value (Pseudomonas aeruginosa [4]; gentamicin 0.12 μg/mL)?
Answer: proliferation

Question: What about the “sensitivity of bacterium (proliferation/suppression)” value (Pseudomonas aeruginosa [4]; gentamicin 8 μg/mL) of the same substance?
Answer: suppression
